# From PMC10366102, “Dose escalation and expansion cohorts in patients with advanced breast cancer in a Phase I study of the CDK7-inhibitor samuraciclib” (Nature Communications, 2023)
# Where “and” joins values, the source holds several entries; their conditions need not be identical. Equal entries are not always repeated. Where two headings read alike, the source gives them in different places.
# How the values were obtained:
# [1] = tested on: advanced solid malignancies; assay: Module 1A anti-tumor activity (RECIST V1.1, PSA); assay type: in vivo, human
# Excerpt: (§1) treatment RECIST assessment. […]
# (§2) number of patients in the particular analysis population. Duration of response (DoR) was defined as the time from documentation of tumor response to disease progression. Progression-free survival (PFS) was […]
# (§3) cause, whichever occurred first. Efficacy results were summarized descriptively and Kaplan -Meier plots provided where appropriate. […]
# advanced TNBC = assay: Module 1B-1 anti-tumor activity (RECIST V1.1); assay type: in vivo, human
# Method: A single arm expansion was conducted to refine the safety, tolerability, PK, and pharmacodynamic profiles of samuraciclib monotherapy (360 mg OD) in male or female patients with advanced TNBC. Patients with histological, radiological or cytological confirmation of metastasis or locally advanced TNBC not considered to be appropriate for further standard treatment, who had received at least 1 line of systemic anti-cancer therapy, and measurable disease according to the RECIST V1.1, were eligible.
# Patients underwent regular safety monitoring and 8-week scans reported using RECIST V1.1. […]
# as §1, §2, §3
# [2] = tested on: HR+/HER2− advanced breast cancer; assay: Module 2A anti-tumor activity (RECIST V1.1, PFS, ctDNA subgroups); assay type: in vivo, human
# Method: A single-arm, ascending-dose study was conducted in 2 cohorts to explore the recommended dose of samuraciclib and fulvestrant in HR+/HER2− advanced breast cancer patients who had previously received, and become resistant to, a CDK4/6 inhibitor. Female patients with histologically confirmed diagnosis of breast cancer, evidence of metastatic or locally advanced disease, and documented ER+ and/or PgR+ and HER2- tumor status treated with an AI in combination with a CDK4/6i before study entry were eligible. In each cohort the dose of fulvestrant was 500 mg every 28 ± 2 days, with an additional 500 mg dose given 14 ± 2 days after the first dose. Cohort 1 tested samuraciclib 240 mg OD continuous dosing. If the DLT stopping criteria were not met, Cohort 2 commenced enrollment at the Module 1A MTD. Patients underwent regular safety monitoring and 8-week scans reported using RECIST V1.1[32].
# Per-protocol ctDNA samples were taken in Module 1B-1 at screening, C1D1, C2D1 and on D1 of alternating cycles from Cycle 3; in Module 2A at screening, C1D1 and at either C2D1 (240 mg) or C2D15 (360 mg) for mutational analysis[24],[33], (Supplementary Information). pPolII in lymphocytes and pPolII and pCDK1/2/3 in core needle tissue samples from patients recruited to the paired biopsy cohort were evaluated for on-target pharmacodynamic analyses. […]
# as §1, §2, §3
# [3] = tested on: peripheral blood mononucleated cells; assay: Antibody validation, flow cytometry of cells treated ex vivo, RNA pol II pSer5; assay type: cell-based, human
# Method: SUPPLEMENTARY TABLE 12: ANTIBODIES USED
# Antibody Application Supplier & Description Dilution/ Validation […]
# RNA pol II Immunohistoche Abcam Rabbit Immuno- Immunohistochemistry: pSer5 mistry (Fig 3); ab193467 monoclonal histochemistry: Positive nuclear staining Flow cytometry [EPR19015] to 1 in 8000 in normal spleen
# (Supplementary RNA 0.02 µg/mL samples. Significant
# Figure 5) polymerase II reduction in staining in CTD repeat Flow cytometry: MCF7 cell line treated
# YSPTSPS 1 in 100 with samuraciclib. […]
# intensity of labelling in […]
# pCDK1/2/ Immunohistoche Abcam Rabbit 1 in 500 Immunohistochemistry:
# 3 mistry (Fig 3) ab201008 monoclonal 1.2 μg/mL Positive nuclear staining [EPR19546] to in normal tonsil samples.
# T161) + CDK2 staining in MCF7 cell
# (phospho T160) line treated with
# Goat anti- Flow cytometry Abcam Polyclonal goat 1 in 1000 Flow cytometry: No Rabbit IgG (Supplementary ab150077 anti-rabbit IgG 2.0 μg/mL significant binding to H&L Figure 5) H&L peripheral blood
# AlexaFluor conjugated to mononucleated cells in 488 AlexaFluor 488 absence of primary
# [4] = parameters: method as in ref IB; conditions: mouse; ref IB; cited from earlier work
# CYP2D6 = tested on: CYP2D6; parameters: method as in ref IB; conditions: human microsomes; ref IB; cited from earlier work
# CYP2C8 = tested on: CYP2C8; parameters: method as in ref IB; conditions: human microsomes; ref IB; cited from earlier work
# CYP3A5 = tested on: CYP3A5; parameters: method as in ref IB; conditions: human microsomes; ref IB; cited from earlier work
# CYP3A4 = tested on: CYP3A4; parameters: method as in ref IB; conditions: separate assay, ref IB, cited from earlier work
# dog = tested on: dog; parameters: method as in ref IB; conditions: oral 5, 15, and 20 mg/kg, ref IB; cited from earlier work
# [5] = tested on: patient-derived xenograft models of TNBC; parameters: method as in Bahl et al, 2017; conditions: ref Bahl et al, 2017; cited from earlier work
# [6] = Module 1A, 36 evaluable patients
# [7] = two castrate-resistant prostate cancer patients
# [8] = Module 2A N = 25, + fulvestrant
# [9] = Module 2A, 25 evaluable, + fulvestrant
# [10] = Module 2A, Liver metastases (N = 14)
smiles,measurement,setting,value
"CC(C)c1cnn2c(NCc3ccccc3)cc(NC[C@H]3CCNC[C@@H]3O)nc12 [samuraciclib, Samuraciclib]",Best change in lesion size on CT scan,"[1]; 1 colorectal cancer patient, 120 mg",-21%
same,Decline in cancer antigen CA 15-3,"[1]; 1 patient with HR-positive BC, interim",30%
same,Decline in PSA,"[1]; 2/2 patients with castrate-refractory prostate cancer, interim, listed as CT7001",45% and 30%
same,Best objective response: Complete response,[1]; Module 1A N = 36,0 n (%)
same,Best objective response: Partial response,[1]; Module 1A N = 36,1 (2.8) n (%)
same,Best objective response: Progressive disease,[1]; Module 1A N = 36,17 (47.2) n (%)
same,Disease control rate,[1]; Module 1A N = 36,19 (52.8) n (%)
same,Disease control rate,[1]; [6],53% and 52.8%
same,Patients maintaining stable disease ≥ 12 weeks,[1]; [6],38.9%
same,Reduction in PSA compared to baseline,[1]; [7],28% and 44%
same,Clinical benefit rate at 24 weeks,"advanced TNBC; Module 1B-1, 4/20",20.0%
same,Best overall response progressive disease,"advanced TNBC; Module 1B-1, 20 evaluable",40.0%
same,Best overall response stable disease,"advanced TNBC; Module 1B-1, 20 evaluable",55.0%
same,Objective response rate,"advanced TNBC; Module 1B-1, 20 evaluable",5.0%
same,"Progression-free survival, median (95% confidence interval)",advanced TNBC; Module 1B-1 ITT N = 23,"2.4 (1.9, 3.8) months"
same,Best objective response: Complete response,advanced TNBC; Module 1B-1 N = 20,0 n (%)
same,Best objective response: Partial response,advanced TNBC; Module 1B-1 N = 20,1 (5.0) n (%)
same,Best objective response: Progressive disease,advanced TNBC; Module 1B-1 N = 20,8 (40.0) n (%)
same,Best objective response: Stable disease,advanced TNBC; Module 1B-1 N = 20,11 (55.0) n (%)
same,Objective response rate,advanced TNBC; Module 1B-1 N = 20,1 (5.0) n (%)
same,Patients with PR persisting ≥24 weeks,[2]; Module 2A,2 patients
same,Patients with SD persisting ≥24 weeks,[2]; Module 2A,7 patients
same,"Progression-free survival, median (95% confidence interval)","[2]; Module 2A ITT N = 31, + fulvestrant","3.7 months and 3.7 (1.8, 7.4) months"
same,Best objective response: Complete response,[2]; [8],0 n (%)
same,Best objective response: Partial response,[2]; [8],3 (12.0) n (%)
same,Best objective response: Progressive disease,[2]; [8],9 (36.0) n (%)
same,Best objective response: Stable disease,[2]; [8],13 (52.0) n (%)
same,Clinical benefit rate at 24 weeks,[2]; [8],9 (36.0) n (%)
same,Objective response rate,[2]; [8],3 (12.0) n (%)
same,"Clinical benefit rate at 24 weeks, overall","[2]; Module 2A, 9/25, + fulvestrant",36.0%
same,Best RECIST response PR,[2]; [9],12.0%
same,Best RECIST response SD,[2]; [9],52.0%
same,Patients achieving PR,"[2]; Module 2A, + fulvestrant",3 patients
same,Clinical benefit rate at 24 weeks,[2]; [10],3 (21.4) n (%)
same,"Progression-free survival, median (95% CI)",[2]; [10],"2.8 months and 2.8 (1.8, 7.4) months"
same,Clinical benefit rate at 24 weeks,"[2]; Module 2A, No TP53 mutation (N = 19)",9 (47.4) n (%)
same,"Progression-free survival, median (95% CI)","[2]; Module 2A, No TP53 mutation (N = 20)","7.4 months and 7.4 (3.7, NC) months"
same,Clinical benefit rate at 24 weeks,"[2]; Module 2A, No liver metastases (N = 11)",6 (54.5) n (%)
same,"Progression-free survival, median (95% CI)","[2]; Module 2A, No liver metastases (N = 17)","13.8 months and 13.8 (7.4, NC) months"
same,Clinical benefit rate at 24 weeks,"[2]; Module 2A, TP53 mutation (N = 6)",0 n (%)
same,Clinical benefit rate at 24 weeks,"[2]; Module 2A, TP53 mutation group n = 6",0%
same,Clinical benefit rate at 24 weeks,"[2]; Module 2A, liver metastases, 3/14",21.4%
same,Clinical benefit rate at 24 weeks,"[2]; Module 2A, no detectable TP53 mutation, 9/19",47.4%
same,Clinical benefit rate at 24 weeks,"[2]; Module 2A, no liver metastases, 6/11",54.5%
same,RNA pol II pSer5 intensity of labelling,[3],Significant reduction in
same,Oral bioavailability,[4],good oral bioavailability
same,IC50,CYP2C8,> 50 µM
same,IC50,CYP3A5,> 50 µM
same,"Haemodynamic parameters, ECG parameters, body temperature",dog,no effect
same,Activity in vivo,[5],encouraging activity
